Among the data in US9085555B2, “Complement pathway modulators and uses thereof” (priority 2011, dated 2015) are IC50 values, retold here.

The assay has as its target Factor D (Homo sapiens (Human), UniProt P00746). Briefly: biochemical. The conditions noted are these: read-out: IC50. Format: biochemical.

SMILES strings stand for the structures.

Factor D, sequence (P00746 26-253): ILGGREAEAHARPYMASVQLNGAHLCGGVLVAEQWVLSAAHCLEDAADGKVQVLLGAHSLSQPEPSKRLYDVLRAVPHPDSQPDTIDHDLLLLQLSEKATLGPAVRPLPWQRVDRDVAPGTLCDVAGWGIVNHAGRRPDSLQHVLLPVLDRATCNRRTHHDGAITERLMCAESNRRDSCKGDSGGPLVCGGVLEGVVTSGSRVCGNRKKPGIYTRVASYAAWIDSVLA

A word on the IC50: it is the concentration at which inhibition is half-maximal. As to `Cc1cc2c(C(N)=O)nn(CC(=O)N3[C@@H]4C[C@@H]4C[C@H]3C(=O)NCc3cccc(Cl)c3F)c2c(C)n1` [Example 695, 1-{2-[(1R,3S,5R)-3-(3-Chloro-2-fluoro-benzylcarbamoyl)-2-aza-bicyclo[3.1.0]hex-2-yl]-2-oxo-ethyl}-5,7-dimethyl-1H-pyrazolo[3,4-c]pyridine-3-carboxylic acid amide], the IC50 worked out at 15 nM. Under `Cc1cc2c(C(N)=O)nn(CC(=O)N3[C@@H]4C[C@@H]4C[C@H]3C(=O)N[C@H](C)c3cccc(Cl)c3F)c2c(C)n1` [Example 696, 1-(2-{(1R,3S,5R)-3-[(R)-1-(3-Chloro-2-fluoro-phenyl)-ethylcarbamoyl]-2-aza-bicyclo[3.1.0]hex-2-yl}-2-oxo-ethyl)-5,7-dimethyl-1H-pyrazolo[3,4-c]pyridine-3-carboxylic acid amide] stands 101 nM; under `CCc1cc2c(C(N)=O)nn(CC(=O)N3C[C@H](F)[C@@H](OC)[C@H]3C(=O)NCc3cccc(Cl)c3F)c2cn1` [Example 697, 1-{2-[(2S,3S,4S)-2-(3-Chloro-2-fluoro-benzylcarbamoyl)-4-fluoro-3-methoxy-pyrrolidin-1-yl]-2-oxo-ethyl}-5-ethyl-1H-pyrazolo[3,4-c]pyridine-3-carboxylic acid amide], 3 nM. As to `C[C@@H](NC(=O)[C@@H]1C[C@H]2C[C@H]2N1C(=O)Cn1nc(C(N)=O)c2cc(C(F)(F)F)ncc21)c1cccc(Cl)c1F` [Example 699, 1-(2-{(1R,3S,5R)-3-[(R)-1-(3-Chloro-2-fluoro-phenyl)-ethylcarbamoyl]-2-aza-bicyclo[3.1.0]hex-2-yl}-2-oxo-ethyl)-5-trifluoromethyl-1H-pyrazolo[3,4-c]pyridine-3-carboxylic acid amide], the IC50 came out at 118 nM. Under `NC(=O)c1nn(CC(=O)N2[C@@H]3C[C@@H]3C[C@H]2C(=O)NCc2cccc(Cl)c2F)c2cnc(C3CC3)cc12` [Example 700, 1-{2-[(1R,3S,5R)-3-(3-Chloro-2-fluoro-benzylcarbamoyl)-2-aza-bicyclo[3.1.0]hex-2-yl]-2-oxo-ethyl}-5-cyclopropyl-1H-pyrazolo[3,4-c]pyridine-3-carboxylic acid amide] stands 6 nM. As to `C[C@@H](NC(=O)[C@@H]1C[C@H]2C[C@H]2N1C(=O)Cn1nc(C(N)=O)c2cc(C3CC3)ncc21)c1cccc(Cl)c1F` [Example 701, 1-(2-{(1R,3S,5R)-3-[(R)-1-(3-Chloro-2-fluoro-phenyl)-ethylcarbamoyl]-2-aza-bicyclo[3.1.0]hex-2-yl}-2-oxo-ethyl)-5-cyclopropyl-1H-pyrazolo[3,4-c]pyridine-3-carboxylic acid amide], the IC50 amounted to 15 nM.

For `NC(=O)c1nn(CC(=O)N2[C@@H]3C[C@@H]3C[C@H]2C(=O)NCc2cccc(Cl)c2F)c2cnccc12` [Example 703, 1-(2-((1R,3S,5R)-3-((3-Chloro-2-fluorobenzyl)carbamoyl)-2-azabicyclo[3.1.0]hexan-2-yl)-2-oxoethyl)-1H-pyrazolo[3,4-c]pyridine-3-carboxamide], the IC50 worked out at 10 nM.

For `CC(=O)c1cn(CC(=O)N2[C@@H]3C[C@@H]3C[C@H]2C(=O)NCc2cccc(Cl)c2F)c2nc(C(=O)O)ccc12` [Example 704, 3-Acetyl-1-{2-[(1R,3S,5R)-3-(3-chloro-2-fluoro-benzylcarbamoyl)-2-aza-bicyclo[3.1.0]hex-2-yl]-2-oxo-ethyl}-1H-pyrrolo[2,3-b]pyridine-6-carboxylic acid], the IC50 worked out at 23 nM. Consider `NC(=O)c1nn(CC(=O)N2[C@@H]3C[C@@H]3C[C@H]2C(=O)NCc2cccc(Cl)c2F)c2c[n+]([O-])ccc12` [Example 705, 3-Carbamoyl-1-(2-((1R,3S,5R)-3-(3-chloro-2-fluorobenzylcarbamoyl)-2-azabicyclo[3.1.0]hexan-2-yl)-2-oxoethyl)-1H-pyrazolo[3,4-c]pyridine 6-oxide], for which the half-inhibitory concentration (IC50) is 21 nM. Take `C[C@@H](NC(=O)[C@@H]1C[C@H]2C[C@H]2N1C(=O)Cn1nc(C(N)=O)c2cc[n+]([O-])cc21)c1cccc(Cl)c1F` [Example 706, 3-Carbamoyl-1-(2-((1R,3S,5R)-3-((R)-1-(3-chloro-2-fluorophenyl)ethyl-carbamoyl)-2-azabicyclo[3.1.0]hexan-2-yl)-2-oxoethyl)-1H-pyrazolo[3,4-c]pyridine 6-oxide]: the IC50 was 45 nM.

On to `NC(=O)c1nn(CC(=O)N2[C@@H]3C[C@@H]3C[C@H]2C(=O)Nc2cccc(OC(F)(F)F)c2F)c2ccccc12` [Example 707, 1-{2-[(1R,3S,5R)-3-(2-Fluoro-3-trifluoromethoxy-phenylcarbamoyl)-2-aza-bicyclo[3.1.0]hex-2-yl]-2-oxo-ethyl}-1H-indazole-3-carboxylic acid amide], for which the IC50 was found to be 88 nM.

Take `NC(=O)c1nn(CC(=O)N2C[C@H](F)C[C@H]2C(=O)Nc2cccc(OC(F)(F)F)c2F)c2ccccc12` [Example 708]: the IC50 worked out at 54 nM. For the compound `NC(=O)c1nn(CC(=O)N2[C@@H]3C[C@@H]3C[C@H]2C(=O)Nc2cccc(OC(F)(F)F)c2F)c2ccncc12` [Example 709, 1-(2-((1R,3S,5R)-3-(2-fluoro-3-(trifluoromethoxy)phenylcarbamoyl)-2-azabicyclo[3.1.0]hexan-2-yl)-2-oxoethyl)-1H-pyrazolo[4,3-c] pyridine-3-carboxamide], the IC50 came out at 144 nM.

`COC(=O)c1ccc2c(C(C)=O)nn(CC(=O)N3[C@@H]4C[C@@H]4C[C@H]3C(=O)Nc3cccc(OC(F)(F)F)c3F)c2c1` [Example 710, Methyl 3-acetyl-1-(2-((1R,3S,5R)-3-(2-fluoro-3-(trifluoromethoxy)phenylcarbamoyl)-2-azabicyclo [3.1.0]hexan-2-yl)-2-oxoethyl)-1H-indazole-6-carboxylate]: the IC50 stood at 52 nM. As to `CC(=O)c1nn(CC(=O)N2[C@@H]3C[C@@H]3C[C@H]2C(=O)Nc2cccc(OC(F)(F)F)c2F)c2ncccc12` [Example 711, (1R,3S,5R)-2-[2-(3-Acetyl-pyrazolo[3,4-b]pyridin-1-yl)-acetyl]-2-aza-bicyclo[3.1.0]hexane-3-carboxylic acid (2-fluoro-3-trifluoromethoxy-phenyl)-amide], the IC50 amounted to 71 nM.

In the case of `CCc1cc2c(C(N)=O)nn(CC(=O)N3[C@@H]4C[C@@H]4C[C@H]3C(=O)Nc3cccc(OC(F)(F)F)c3F)c2cn1` [Example 712, 5-Ethyl-1-{2-[(1R,3S,5R)-3-(2-fluoro-3-trifluoromethoxy-phenylcarbamoyl)-2-aza-bicyclo[3.1.0]hex-2-yl]-2-oxo-ethyl}-1H-pyrazolo[3,4-c]pyridine-3-carboxylic acid amide], the IC50 worked out at 38 nM. Under `Cc1cc2c(cn1)c(C(N)=O)nn2CC(=O)N1[C@@H]2C[C@@H]2C[C@H]1C(=O)Nc1cccc(OC(F)(F)F)c1F` [Example 713, 1-{2-[(1R,3S,5R)-3-(2-Fluoro-3-trifluoromethoxy-phenylcarbamoyl)-2-aza-bicyclo[3.1.0]hex-2-yl]-2-oxo-ethyl}-6-methyl-1H-pyrazolo[4,3-c]pyridine-3-carboxylic acid amide] stands 260 nM. On to `COc1cc2c(C(N)=O)nn(CC(=O)N3[C@@H]4C[C@@H]4C[C@H]3C(=O)Nc3cccc(OC(F)(F)F)c3F)c2cn1` [Example 714, 1-{2-[(1R,3S,5R)-3-(2-Fluoro-3-trifluoromethoxy-phenylcarbamoyl)-2-aza-bicyclo[3.1.0]hex-2-yl]-2-oxo-ethyl}-5-methoxy-1H-pyrazolo[3,4-c]pyridine-3-carboxylic acid amide], for which the IC50 came out at 300 nM. For `CCc1cc2c(C(N)=O)nn(CC(=O)N3C[C@H](F)C[C@H]3C(=O)Nc3cccc(OC(F)(F)F)c3F)c2cn1` [Example 715, 5-Ethyl-1-{2-[(2S,4R)-4-fluoro-2-(2-fluoro-3-trifluoromethoxy-phenylcarbamoyl)-pyrrolidin-1-yl]-2-oxo-ethyl}-1H-pyrazolo[3,4-c]pyridine-3-carboxylic acid amide], the IC50 was determined as 27 nM. With `Cc1nccc2c(C(N)=O)nn(CC(=O)N3[C@@H]4C[C@@H]4C[C@H]3C(=O)Nc3cccc(OC(F)(F)F)c3F)c12` [Example 716, 1-{2-[(1R,3S,5R)-3-(2-Fluoro-3-trifluoromethoxy-phenylcarbamoyl)-2-aza-bicyclo[3.1.0]hex-2-yl]-2-oxo-ethyl}-7-methyl-1H-pyrazolo[3,4-c]pyridine-3-carboxylic acid amide], the IC50 is 46 nM. Under `Cc1cc2c(C(N)=O)nn(CC(=O)N3[C@@H]4C[C@@H]4C[C@H]3C(=O)Nc3cccc(OC(F)(F)F)c3F)c2c(C)n1` [Example 717, 1-{2-[(1R,3S,5R)-3-(2-Fluoro-3-trifluoromethoxy-phenylcarbamoyl)-2-aza-bicyclo[3.1.0]hex-2-yl]-2-oxo-ethyl}-5,7-dimethyl-1H-pyrazolo [3,4-c]pyridine-3-carboxylic acid amide] stands 31 nM. Regarding `CC(=O)c1nn(CC(=O)N2[C@@H]3C[C@@H]3C[C@H]2C(=O)Nc2cccc(OC(F)(F)F)c2F)c2ccc(OCc3ncccn3)cc12` [Example 718, (1R,3S,5R)-2-{2-[3-Acetyl-5-(pyrimidin-2-ylmethoxy)-indazol-1-yl]-acetyl}-2-aza-bicyclo[3.1.0]hexane-3-carboxylic acid (2-fluoro-3-trifluoromethoxy-phenyl)-amide], the IC50 worked out at 24 nM. Under `NC(=O)c1nn(CC(=O)N2[C@@H]3C[C@@H]3C[C@H]2C(=O)Nc2cccc(OC(F)(F)F)c2F)c2cnc(C3CC3)cc12` [Example 719, 5-Cyclopropyl-1-(2-((1R,3S,5R)-3-((2-fluoro-3-(trifluoromethoxy)phenyl)carbamoyl)-2-azabicyclo [3.1.0]hexan-2-yl)-2-oxoethyl)-1H-pyrazolo[3,4-c]pyridine-3-carboxamide] stands 13 nM; under `NC(=O)c1nn(CC(=O)N2[C@@H]3C[C@@H]3C[C@H]2C(=O)Nc2cccc(OC(F)(F)F)c2F)c2nnccc12` [Example 720, 1-(2-((1R,3S,5R)-3-((2-Fluoro-3-(trifluoromethoxy)phenyl)carbamoyl)-2-azabicyclo[3.1.0]hexan-2-yl)-2-oxoethyl)-1H-pyrazolo[3,4-c] pyridazine-3-carboxamide], 140 nM.
